Measurements taken from patent US20050037062A1, “Emulsifying systems containing azetidine derivatives” (Aventis Pharma S.A., priority 2003, published 2005).
Converted amounts (≈) assume the structure as drawn. Like-named read-outs stand apart in the source and are kept apart here.

Columns and labels:
[1] = First in Man study (Maximum Tolerated Dose, interindividual variability, food effect); format: in vivo; settings: Miglyol 812N solution
Procedure: (§1) In the first preclinical studies performed in rats, the oral administration of an aqueous suspension of a drug substance of formula (I) in 0.5% methylcellulose/0.2% tween 80 (dose at 10 mg/kg) led to a very low bioavailability (3%). […] Furthermore, this excipient (medium chain triglyceride) is known for its digestibility and regulatory acceptability. […] However, in the First in Man study, an important food effect and interindividual variability were observed: the Maximum Tolerated Dose was around 100 mg in fasted conditions, with an interindividual variability of 50%, whereas in fed conditions the Maximum Tolerated Dose was divided by 10 with a decrease of the interindividual variability to 30%.

[2] = Oral bioavailability in preclinical studies in rats; settings: rat, in vivo
Procedure: as §1

[3] = Colloidal stability and self-emulsifying properties: drug recovered after incubation in simulated GI media and filtration; format: physicochemical; settings: for Compound (Ic) recovered after filtration (2 μm) after incubation with GI media: diluted 1:50, 2 h at 37° C., theoretical concentration 200 μg/ml; for filtered fraction: aqueous solution of the drug, filter 0.45, 2 or 5 μm
Procedure: The preparation of the mixture of Miglyol 812 (liquid), Cremophor RH40 (semisolid at room temperature, solidification point 28° C.) and Capryol 90 (liquid) needed to heat the mixture at 60° C. to obtain a homogeneous solution. In addition, the heating of the mixture could have an impact on the chemical stability of Compound Ic. Taking into account these two issues, the proposition was made to replace Cremophor RH 40 by Cremophor EL (from same chemical family). Cremophor EL, polyoxyl 35 castor oil, is a liquid surfactant: No heating is needed for the manufacturing. Two tests were performed to evaluate the interest of Cremophor EL in comparison with Cremophor RH 40: design of the pseudoternary diagram for a surfactant/co surfactant ratio of 3:1 and test of the infinite dilutability. [drawing 15] • Miglyol 812N (Condea, Batch 508) • PEG 400—Batch 5056 • Phosal 50PG (Aventis Nattermann, Batch 228188) • Labrafil 1944CS (Gattefossé, Batch 15195) • Labrasol (Gattefossé, Batch 22478) • Gelucire 44/14 (Gattefossé, Batch 14236) Microemulsions (Cremophor RH40 or EL, Capryol 90, Miglyol 812N) The weighed drug (50 mg) was dispersed in the excipient (up to 5 g), and then maintained under mechanical stirring until dissolution. […] The mass was poured in a suppository mould and kept refrigerated overnight. For the stability studies, the melted mass was poured into hard gelatine capsule (size 1) and kept refrigerated overnight. The gelatine shell was then removed. [drawing 17] The following simulated media were selected for the present experiment: • Gastric medium USP, pH 1.2 • Fasted intestinal medium, pH 6.8 (ref. Dressman et al., Pharm. Res., 1998)
Fed intestinal medium, pH 5 (ref. Dressman et al., Pharm. Res., 1998)
All Compound (Ic) formulations (400 mg) were diluted 1:50 in the gastric, fasted intestinal or fed intestinal medium (20 ml), then incubated during 2 hours at 37° C. under mechanical stirring (300 rpm). The drug concentration was determined by HPLC before and after filtration (0.2 or 2 μm).
The aim of this study was to evaluate the colloidal stability and the self-emulsifying properties of the emulsion/microemulsion/micellar solution of the (Ic) formulation after incubation in the GI media. Thus, the sample was filtered onto 2 μm (able to retain oil droplets >2 μm, as well as drug crystals >2 μm) then dosed by HPLC. The filter size (2 μm) has been chosen after a screening with different filter sizes (0.45, 2 and 5 μm) tested on the aqueous solution of the drug. […] In summary, the filtered fraction was approximately 1% in the gastric medium, 2% in the fasted intestinal medium, 4.5-5.5% in the fed intestinal medium.

[4] = Solubility of compound (Ic) in lipids, surfactants and pharmaceutical cosolvents; format: physicochemical
Text: The first step was to determine the solubility of compound(Ic) in an exhaustive series of lipids and other pharmaceutical cosolvents including vegetable oils, lipidic components, surfactants, hydrophilic components and phospholipids. The protocol of the solubility measurement is reported in the annex.

For `CS(=O)(=O)C(=C1CN(C(c2ccc(Cl)cc2)c2ccc(Cl)cc2)C1)c1cc(F)cc(F)c1` [Compound (Ic)], which “Maximum Tolerated Dose” value ([1]; fasted conditions) is on record?
Its value is “around 100 mg”.

And the interindividual variability ([1]; fasted conditions)?
The interindividual variability was 50%.

What about the “Maximum Tolerated Dose relative to fasted conditions” value ([1]; fed conditions) of the same molecule?
The value was “divided by 10”.

What about the interindividual variability ([1]; fed conditions) of the same molecule?
Its interindividual variability is 30%.

What about the bioavailability ([2]; aqueous suspension in 0.5% methylcellulose/0.2% tween 80, dose 10 mg/kg) of the same molecule?
The bioavailability was 3%.

And the bioavailability ([2]; solution of 25 mg/mL in Miglyol 812N, dose 1 mg/kg)?
The bioavailability was 13%.

And the bioavailability ([2]; solution of 25 mg/mL in Miglyol 812N, dose 10 mg/kg)?
The bioavailability was 37%.

What about the “Compound (Ic) recovered after filtration (2 μm) after incubation with GI media” value (“Compound (Ic) recovered after filtration” below) ([3]; Fasted intestinal medium pH 6.8) of the same molecule?
The value was 4.2 µg/mL.

And the “Compound (Ic) recovered after filtration” value ([3]; Fed intestinal medium pH 5)?
The value was 8.8 µg/mL.

What about the “Compound (Ic) recovered after filtration” value ([3]; Gastric medium) of the same molecule?
The value was 1.9 µg/mL.

What about the filtered fraction ([3]; fasted intestinal medium) of the same molecule?
Its filtered fraction is about 2%.

And the filtered fraction ([3]; fed intestinal medium)?
The filtered fraction was 4.5-5.5%.

What about the filtered fraction ([3]; gastric medium) of the same molecule?
The filtered fraction was “approximately 1%”.

And the solubility ([4]; aqueous with cosolvent or surfactant or cyclodextrin, in Cremophor RH40 (POE hydrogenated castor oil), read-out: solubility)?
Its solubility is 80.6 mg/mL (≈ 163 mM).

And the solubility ([4]; aqueous with cosolvent or surfactant or cyclodextrin, in HP β Cyclodextrin, read-out: solubility)?
The solubility was 0.05 mg/mL (≈ 0.101 mM).

And the solubility ([4]; aqueous with cosolvent or surfactant or cyclodextrin, in Span 20 (Sorbitan monolaurate), read-out: solubility)?
Its solubility is 31.6 mg/mL (≈ 63.9 mM).

And the solubility ([4]; aqueous with cosolvent or surfactant or cyclodextrin, in Span 85 (Sorbitan trioleate), read-out: solubility)?
Its solubility is 92 mg/mL (≈ 186 mM).

What about the solubility ([4]; aqueous with cosolvent or surfactant or cyclodextrin, in Tween 80 (POE monooleate), read-out: solubility) of the same molecule?
Its solubility is 50.6 mg/mL (≈ 102 mM).

And the solubility ([4]; in Brij 96 (POE oleyl ether))?
Its solubility is 85.7 mg/g.

What about the solubility ([4]; in Capryol 90 (Polyethyleneglycol monocaprylate)) of the same molecule?
The solubility was 56.6 mg/g.

And the solubility ([4]; in Castor oil)?
Its solubility is 16.1 mg/g.

And the solubility ([4]; in Coconut oil)?
The solubility was 18.6 mg/g.

What about the solubility ([4]; in Cremophor RH 40 (Polyoxyl 40 hydrogenated castor oil)) of the same molecule?
The solubility was 80.6 mg/g.

What about the solubility ([4]; in Crossential LN 75 (Linolenic acid)) of the same molecule?
Its solubility is 45.4 mg/g.

And the solubility ([4]; in Crossential O94 (Oleic acid))?
Its solubility is 19.6 mg/g.

And the solubility ([4]; in Edenor C8 98-100 (Caprylic acid))?
The solubility was 75.5 mg/g.

And the solubility ([4]; in Gelucire 44/14 (lauroyl macrogol-32 glycerides))?
The solubility was 90.1 mg/g.

What about the solubility ([4]; in Gelucire 50/13 (stearoyl macrogol-32 glycerides)) of the same molecule?
Its solubility is 78.5 mg/g.

What about the solubility ([4]; in Labrafil M 1944 CS (Oleic Macrogol-6 glycerides)) of the same molecule?
The solubility was 30.3 mg/g.

What about the solubility ([4]; in Labrasol (Caprylocaproyl macrogol-8 glycerides)) of the same molecule?
Its solubility is 111.8 mg/g.

What about the solubility ([4]; in Lauroglycol (PG monolaurate)) of the same molecule?
The solubility was 28.5 mg/g.

What about the solubility ([4]; in Miglyol 812 (Caprylic/capric triglycerides)) of the same molecule?
Its solubility is 37.4 mg/g.

What about the solubility ([4]; in Myrj 45 (POE stearate)) of the same molecule?
Its solubility is 86.9 mg/g.

And the solubility ([4]; in Myvacet 9-45 (Distilled acetylated monoglycerides))?
The solubility was 54.8 mg/g.

What about the solubility ([4]; in Neobee M 20 (PG dicaprylate/dicaprate)) of the same molecule?
The solubility was 47.7 mg/g.

What about the solubility ([4]; in Olive oil) of the same molecule?
Its solubility is 10.9 mg/g.

And the solubility ([4]; in PEG 1500 (polyethylene glycol 1500))?
Its solubility is under 10 mg/g.

What about the solubility ([4]; in Phosal 40 MD (Phosphatidylcholine 38 ± 1.5% in glyceryl stearate, soya oil and linoleic acid ethylester)) of the same molecule?
The solubility was 12.5 mg/g.

And the solubility ([4]; in Phosal 50 PG (Phosphatidylcholine ≧ 50% in propylene glycol))?
The solubility was 11.7 mg/g.

And the solubility ([4]; in Phosal 50 PG (Phosphatidylcholine ≧ 50% in propylene glycol), listed as Compound Ic)?
Its solubility is 11.5 mg/g.

And the solubility ([4]; in Phosal 53 MCT (Phosphatidylcholine 56 ± 3% in caprylic/capric triglycerides, alcohol, glyceryl stearate, oleic acid and ascorbyl palmitate))?
The solubility was 25.8 mg/g.

And the solubility ([4]; in Phosal 75 SA (Phosphatidylcholine 75 ± 3% in alcohol, safflower oil, glyceryl stearate, coconut oil and ascorbyl palmitate))?
The solubility was under 10 mg/g.

And the solubility ([4]; in Phospholipon 90 (Phosphatidylcholine 93%))?
The solubility was 40 mg/g.

And the solubility ([4]; in Safflower oil)?
The solubility was 14.8 mg/g.

And the solubility ([4]; in Sesame oil)?
The solubility was 10.9 mg/g.

What about the solubility ([4]; in VitaminE TPGS (d-α-tocopheryl polyethylene glycol 1000 succinate)) of the same molecule?
Its solubility is 100 mg/g.

And the solubility ([4]; oil or lipid, in Imwitor 742 (Glyceryl mono-dicaprylate/caprate), read-out: solubility)?
The solubility was 31.2 mg/mL (≈ 63.1 mM).

What about the solubility ([4]; oil or lipid, in Imwitor 988 (Glyceryl mono-dicaprylate), read-out: solubility) of the same molecule?
Its solubility is 41.2 mg/mL (≈ 83.3 mM).

What about the solubility ([4]; oil or lipid, in Labrafil M1944 CS (oleyl macrogol-6-glycerides), read-out: solubility) of the same molecule?
Its solubility is 30.3 mg/mL (≈ 61.3 mM).

What about the solubility ([4]; oil or lipid, in Miglyol 812 (caprylic/capric triglyceride), read-out: solubility) of the same molecule?
Its solubility is 35.9 mg/mL (≈ 72.6 mM).

And the solubility ([4]; oil or lipid, in Peanut oil, read-out: solubility)?
The solubility was 7.2 mg/mL (≈ 14.6 mM).

And the solubility ([4]; oil or lipid, in Soyabean oil, read-out: solubility)?
The solubility was 31.8 mg/mL (≈ 64.3 mM).

What about the solubility ([4]; organic solvent or mixture, in Ethanol, read-out: solubility) of the same molecule?
The solubility was 5.8 mg/mL (≈ 11.7 mM).

And the solubility ([4]; organic solvent or mixture, in PEG 400 (polyethylene glycol 400), read-out: solubility)?
Its solubility is 78.1 mg/mL (≈ 158 mM).

What about the solubility ([4]; organic solvent or mixture, in Transcutol (Diethylene glycol monoethyl ether), read-out: solubility) of the same molecule?
Its solubility is 89.8 mg/mL (≈ 182 mM).
